# Experimental data: the supplement of paper PMC9663587
# Columns and labels:
# Experiment in all cases: GRmax, 72 h; higher = less effect;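 also: breast cell lines in 384-well plates, nine doses across a 10^4 range, Dye Drop imaging of viable cells vs DMSO and time-zero plates, GR 0 means no net growth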
# [1] = tested on: HCC1395
# [2] = tested on: HCC1419
# [3] = tested on: HCC70
# [4] = tested on: SKBR3
# [5] = tested on: CAL851
# [6] = tested on: MDAMB175VII
# [7] = tested on: PDXHCI002
# [8] = tested on: BT474
# [9] = tested on: HCC1806
# [10] = tested on: ZR7530
# [11] = tested on: SUM185PE
# [12] = tested on: SUM159
smiles,measurement,setting,value
COc1ccc2c(c1)[C@]1(C[C@H]1c1ccc3c(/C=C/c4ccc(CN5C[C@@H](C)O[C@@H](C)C5)cc4)n[nH]c3c1)C(=O)N2,"GRmax, 72 h",[1],-0.178 GR
same,"GRmax, 72 h",[2],0.32 GR
same,"GRmax, 72 h",[3],-0.31 GR
same,"GRmax, 72 h",[4],-0.0682 GR
same,"GRmax, 72 h",[5],-0.11 GR
same,"GRmax, 72 h",[6],0.046 GR
same,"GRmax, 72 h",[7],0.107 GR
same,"GRmax, 72 h",[8],0.18 GR
same,"GRmax, 72 h",[9],-0.106 GR
same,"GRmax, 72 h",[10],0.174 GR
same,"GRmax, 72 h",[11],0.364 GR
same,"GRmax, 72 h",[12],-0.119 GR
COc1cccc(OCCCN)c1-c1cc(Nc2cnc(C#N)cn2)n[nH]1,"GRmax, 72 h",[1],-0.491 GR
same,"GRmax, 72 h",[2],0.248 GR
same,"GRmax, 72 h",[3],-0.639 GR
same,"GRmax, 72 h",[4],-0.406 GR
same,"GRmax, 72 h",[5],0.0306 GR
same,"GRmax, 72 h",[6],0.0945 GR
same,"GRmax, 72 h",[7],0.705 GR
same,"GRmax, 72 h",[8],0.715 GR
same,"GRmax, 72 h",[9],-0.476 GR
same,"GRmax, 72 h",[10],0.561 GR
same,"GRmax, 72 h",[11],0.559 GR
same,"GRmax, 72 h",[12],-0.0281 GR
CC(=O)Nc1cccc(-n2c(=O)n(C3CC3)c(=O)c3c(Nc4ccc(I)cc4F)n(C)c(=O)c(C)c32)c1 (max 1 µM),"GRmax, 72 h",[1],0.45 GR
same,"GRmax, 72 h",[2],0.426 GR
same,"GRmax, 72 h",[3],-0.0393 GR
same,"GRmax, 72 h",[4],0.683 GR
same,"GRmax, 72 h",[5],0.234 GR
same,"GRmax, 72 h",[6],-0.698 GR
same,"GRmax, 72 h",[7],0.642 GR
same,"GRmax, 72 h",[8],1.36 GR
same,"GRmax, 72 h",[9],0.704 GR
same,"GRmax, 72 h",[10],0.405 GR
same,"GRmax, 72 h",[11],0.904 GR
same,"GRmax, 72 h",[12],0.404 GR
CCc1cnn2c(NCc3ccc[n+]([O-])c3)cc(N3CCCC[C@H]3CCO)nc12 (max 1 µM),"GRmax, 72 h",[1],-0.497 GR
same,"GRmax, 72 h",[2],-0.476 GR
same,"GRmax, 72 h",[3],-0.909 GR
same,"GRmax, 72 h",[4],-0.621 GR
same,"GRmax, 72 h",[5],-0.241 GR
same,"GRmax, 72 h",[6],-0.493 GR
same,"GRmax, 72 h",[7],-0.361 GR
same,"GRmax, 72 h",[8],-0.762 GR
same,"GRmax, 72 h",[9],-0.459 GR
same,"GRmax, 72 h",[10],-0.714 GR
same,"GRmax, 72 h",[11],0.18 GR
same,"GRmax, 72 h",[12],-0.122 GR
CC(=O)c1c(C)c2cnc(Nc3ccc(N4CCNCC4)cn3)nc2n(C2CCCC2)c1=O (max 3.162 µM),"GRmax, 72 h",[1],0.348 GR
same,"GRmax, 72 h",[2],0.441 GR
same,"GRmax, 72 h",[3],0.936 GR
same,"GRmax, 72 h",[4],0.35 GR
same,"GRmax, 72 h",[5],1.08 GR
same,"GRmax, 72 h",[6],-0.0887 GR
same,"GRmax, 72 h",[7],0.277 GR
same,"GRmax, 72 h",[8],0.519 GR
same,"GRmax, 72 h",[9],0.692 GR
same,"GRmax, 72 h",[10],0.266 GR
same,"GRmax, 72 h",[11],0.852 GR
same,"GRmax, 72 h",[12],0.45 GR
CCc1cncnc1N1CCN(Cc2nc3ccc(C(F)(F)F)cc3[nH]2)CC1 (max 10 µM),"GRmax, 72 h",[1],0.659 GR
same,"GRmax, 72 h",[2],0.349 GR
same,"GRmax, 72 h",[3],0.935 GR
same,"GRmax, 72 h",[4],0.734 GR
same,"GRmax, 72 h",[5],1.02 GR
same,"GRmax, 72 h",[6],-0.426 GR
same,"GRmax, 72 h",[7],0.873 GR
same,"GRmax, 72 h",[8],0.508 GR
same,"GRmax, 72 h",[9],1.15 GR
same,"GRmax, 72 h",[10],0.113 GR
same,"GRmax, 72 h",[11],0.182 GR
same,"GRmax, 72 h",[12],0.846 GR
CCCCOc1c(C(=O)c2c(F)cc(C)cc2F)c[nH]c2nncc1-2 (max 10 µM),"GRmax, 72 h",[1],-0.214 GR
same,"GRmax, 72 h",[2],0.4 GR
same,"GRmax, 72 h",[3],-0.164 GR
same,"GRmax, 72 h",[4],-0.0172 GR
same,"GRmax, 72 h",[5],-0.012 GR
same,"GRmax, 72 h",[6],-0.0619 GR
same,"GRmax, 72 h",[7],0.217 GR
same,"GRmax, 72 h",[8],0.503 GR
same,"GRmax, 72 h",[9],0.0151 GR
same,"GRmax, 72 h",[10],0.212 GR
same,"GRmax, 72 h",[11],0.905 GR
same,"GRmax, 72 h",[12],0.26 GR
CCN1CCN(Cc2ccc(Nc3ncc(F)c(-c4cc(F)c5nc(C)n(C(C)C)c5c4)n3)nc2)CC1 (max 10 µM),"GRmax, 72 h",[1],-0.52 GR
same,"GRmax, 72 h",[2],0.228 GR
same,"GRmax, 72 h",[3],-0.826 GR
same,"GRmax, 72 h",[4],0.143 GR
same,"GRmax, 72 h",[5],-0.224 GR
same,"GRmax, 72 h",[6],-0.192 GR
same,"GRmax, 72 h",[7],-0.677 GR
same,"GRmax, 72 h",[8],0.301 GR
same,"GRmax, 72 h",[9],-0.444 GR
same,"GRmax, 72 h",[10],0.125 GR
same,"GRmax, 72 h",[11],0.486 GR
same,"GRmax, 72 h",[12],-0.0575 GR
CNc1nc(-c2ccc3c(N)n[nH]c3c2)cc(N2C[C@@H](C(=O)NC3CCCCC3)CC[C@H]2C)n1 (max 10 µM),"GRmax, 72 h",[1],0.518 GR
same,"GRmax, 72 h",[2],0.442 GR
same,"GRmax, 72 h",[3],0.15 GR
same,"GRmax, 72 h",[4],0.307 GR
same,"GRmax, 72 h",[5],0.506 GR
same,"GRmax, 72 h",[6],-0.459 GR
same,"GRmax, 72 h",[7],0.867 GR
same,"GRmax, 72 h",[8],0.151 GR
same,"GRmax, 72 h",[9],0.869 GR
same,"GRmax, 72 h",[10],0.348 GR
same,"GRmax, 72 h",[11],0.54 GR
same,"GRmax, 72 h",[12],0.6 GR
CO[C@@H](C)Cn1c(=O)n(C)c2cnc3ccc(-c4cncc(C(C)(C)O)c4)cc3c21 (max 10 µM),"GRmax, 72 h",[1],-0.0122 GR
same,"GRmax, 72 h",[2],-0.769 GR
same,"GRmax, 72 h",[3],-0.755 GR
same,"GRmax, 72 h",[4],-0.502 GR
same,"GRmax, 72 h",[5],-0.0445 GR
same,"GRmax, 72 h",[6],-0.938 GR
same,"GRmax, 72 h",[7],-0.0949 GR
same,"GRmax, 72 h",[8],-0.844 GR
same,"GRmax, 72 h",[9],-0.0061 GR
same,"GRmax, 72 h",[10],-0.36 GR
same,"GRmax, 72 h",[11],-0.0606 GR
same,"GRmax, 72 h",[12],0.0637 GR
Cc1nn(C)c(COc2ccc(N3CCN(S(=O)(=O)N(C)C)CC3)cc2)c1-c1cccc2c(CCCOc3cccc4ccccc34)c(C(=O)O)n(CCN3CCOCC3)c12 (max 10 µM),"GRmax, 72 h",[1],0.859 GR
same,"GRmax, 72 h",[2],0.708 GR
same,"GRmax, 72 h",[3],0.938 GR
same,"GRmax, 72 h",[4],0.627 GR
same,"GRmax, 72 h",[5],1.01 GR
same,"GRmax, 72 h",[6],0.705 GR
same,"GRmax, 72 h",[7],0.981 GR
same,"GRmax, 72 h",[8],0.69 GR
same,"GRmax, 72 h",[9],0.905 GR
same,"GRmax, 72 h",[10],0.576 GR
same,"GRmax, 72 h",[11],0.532 GR
same,"GRmax, 72 h",[12],0.83 GR
CN(C)CC[C@H](CSc1ccccc1)Nc1ccc(S(=O)(=O)NC(=O)c2ccc(N3CCN(Cc4ccccc4-c4ccc(Cl)cc4)CC3)cc2)cc1[N+](=O)[O-] [ABT-737] (max 10 µM),"GRmax, 72 h",[1],0.861 GR
same,"GRmax, 72 h",[2],0.471 GR
same,"GRmax, 72 h",[3],-0.0638 GR
same,"GRmax, 72 h",[4],0.947 GR
same,"GRmax, 72 h",[5],0.934 GR
same,"GRmax, 72 h",[6],-0.101 GR
same,"GRmax, 72 h",[7],0.146 GR
same,"GRmax, 72 h",[8],0.181 GR
same,"GRmax, 72 h",[9],0.729 GR
same,"GRmax, 72 h",[10],0.552 GR
same,"GRmax, 72 h",[11],-0.294 GR
same,"GRmax, 72 h",[12],0.781 GR
C=CCn1c(=O)c2cnc(Nc3ccc(N4CCN(C)CC4)cc3)nc2n1-c1cccc(C(C)(C)O)n1 [AZD1775] (max 10 µM),"GRmax, 72 h",[1],-0.587 GR
same,"GRmax, 72 h",[2],-0.0276 GR
same,"GRmax, 72 h",[3],-0.75 GR
same,"GRmax, 72 h",[4],-0.561 GR
same,"GRmax, 72 h",[5],-0.55 GR
same,"GRmax, 72 h",[6],-0.203 GR
same,"GRmax, 72 h",[7],-0.347 GR
same,"GRmax, 72 h",[8],-0.398 GR
same,"GRmax, 72 h",[9],-0.55 GR
same,"GRmax, 72 h",[10],-0.501 GR
same,"GRmax, 72 h",[11],0.213 GR
same,"GRmax, 72 h",[12],-0.152 GR
CNC(=O)c1cccc(-c2ccc3c(N4CCOC[C@@H]4C)nc(N4CCOC[C@@H]4C)nc3n2)c1 [AZD2014] (max 10 µM),"GRmax, 72 h",[1],0.274 GR
same,"GRmax, 72 h",[2],-0.12 GR
same,"GRmax, 72 h",[3],0.0453 GR
same,"GRmax, 72 h",[4],-0.0488 GR
same,"GRmax, 72 h",[5],0.114 GR
same,"GRmax, 72 h",[6],-0.756 GR
same,"GRmax, 72 h",[7],0.489 GR
same,"GRmax, 72 h",[8],-0.421 GR
same,"GRmax, 72 h",[9],0.409 GR
same,"GRmax, 72 h",[10],-0.24 GR
same,"GRmax, 72 h",[11],0.244 GR
same,"GRmax, 72 h",[12],0.113 GR
NC1(C(=O)N[C@@H](CCO)c2ccc(Cl)cc2)CCN(c2nc[nH]c3nccc2-3)CC1 [AZD5363] (max 10 µM),"GRmax, 72 h",[1],0.0739 GR
same,"GRmax, 72 h",[2],0.536 GR
same,"GRmax, 72 h",[3],-0.292 GR
same,"GRmax, 72 h",[4],0.138 GR
same,"GRmax, 72 h",[5],0.592 GR
same,"GRmax, 72 h",[6],-0.28 GR
same,"GRmax, 72 h",[7],1.08 GR
same,"GRmax, 72 h",[8],0.0474 GR
same,"GRmax, 72 h",[9],0.789 GR
same,"GRmax, 72 h",[10],0.187 GR
same,"GRmax, 72 h",[11],0.447 GR
same,"GRmax, 72 h",[12],0.444 GR
